# Structures can show the parent of a compound that is named as a salt. Where two headings read alike, the source gives them in different places.
# What was measured:
# Water solubility = format: physicochemical; details: BA as protonated species, hs = highly soluble, read-out: Ws (water solubility)
# Description: (§1) Physiochemical properties of Compound 1 such as water solubility, critical micellar concentration, surface tension, and LogPA were determined using methods known in the art.
# Surface tension at CMC = format: physicochemical; details: in […] NaCl water solution; in mN/m (unit assumed)
# Description: as §1
# [1] = 1-octanol-water partition coefficient (LogPA-); format: physicochemical; details: bile acids as ionized species
# Description: as §1
# [2] = Critical micellar concentration; format: physicochemical; details: in […] NaCl water solution
# PPARγ = PPARγ (Homo sapiens, UniProt P37231); assay: AlphaScreen nuclear receptor profile (agonist mode), PPARγ; format: biochemical
# CYP2D6 = biological target: T1, CYP2D6 (Homo sapiens, UniProt P10635); assay: CYP450 screening, fluorescent signal, recombinant baculosomes, CYP2D6; format: in vitro ADME
# T1 construct: purchased Invitrogen; host or cells: baculosomes (insect-cell microsomes)
# RXRα = RXRα (Homo sapiens, UniProt P19793); assay: AlphaScreen nuclear receptor profile (agonist mode), RXRα; format: biochemical
# hERG potassium channel = hERG potassium channel (Homo sapiens, UniProt Q12809); assay: biochemical
# CYP3A4 = biological target: T2, CYP3A4 (Homo sapiens, UniProt P08684); assay: CYP450 screening, fluorescent signal, recombinant baculosomes, CYP3A4; format: in vitro ADME
# T2 construct: purchased Invitrogen
# dTGR5 = dTGR5 (Canis lupus familiaris, UniProt A0A8I3PZA6); assay: TGR5 cross species activity, dTGR5; format: cell-based, dog; details: Table 3, cross species
# Human TGR5 = biological target: T3, Human TGR5 (Homo sapiens, UniProt Q8TDU6); assay: HTR-FRET intracellular cAMP assay in NCI-H716 cells; format: cell-based
# T3 construct: Human enteroendocrine NCI-H716 cells constitutively expressing TGR5; endogenous in cells; host or cells: NCI-H716
# T3 sequence (Q8TDU6 1-330): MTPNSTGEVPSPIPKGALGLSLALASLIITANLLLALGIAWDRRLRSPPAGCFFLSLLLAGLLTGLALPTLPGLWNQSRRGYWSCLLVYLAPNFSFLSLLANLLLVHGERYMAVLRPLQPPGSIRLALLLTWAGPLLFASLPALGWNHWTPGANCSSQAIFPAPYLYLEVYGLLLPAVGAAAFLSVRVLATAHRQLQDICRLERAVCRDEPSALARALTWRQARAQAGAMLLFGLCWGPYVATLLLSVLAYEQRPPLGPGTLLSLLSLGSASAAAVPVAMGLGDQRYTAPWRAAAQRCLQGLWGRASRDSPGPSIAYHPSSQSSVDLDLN
# PPARα = PPARα (Homo sapiens, UniProt Q07869); assay: AlphaScreen nuclear receptor profile (agonist mode), PPARα; format: biochemical
# LXRα = LXRα (Homo sapiens, UniProt Q13133); assay: AlphaScreen nuclear receptor profile (agonist mode), LXRα; format: biochemical
# ER = assay: AlphaScreen nuclear receptor profile (agonist mode), ER; format: biochemical
# GR = GR (Homo sapiens, UniProt P04150); assay: AlphaScreen nuclear receptor profile (agonist mode), GR; format: biochemical
# LXRβ = LXRβ (Homo sapiens, UniProt P55055); assay: AlphaScreen nuclear receptor profile (agonist mode), LXRβ; format: biochemical
# Pgp = biological target: T4, Pgp (Homo sapiens, UniProt P08183); assay: Pgp-Glo Assay, Pgp ATPase activity; format: in vitro ADME; details: read-out: Pgp Substrate EC50
# T4 construct: purchased V3591 and V3601
# Text: The impact of Compound 1 on Pgp ATPase activity was examined in Pgp-GloTM Assay (Technical Bulletin; Pgp-GloTM Assay Systems Instructions for Use of Products […] and […]; Revised November 2015) according to the manufacturer's standard protocol.
# mTGR5 = mTGR5 (Mus musculus, UniProt Q80SS6); assay: TGR5 cross species activity, mTGR5; format: cell-based; details: Table 3, cross species
# TR = assay: AlphaScreen nuclear receptor profile (agonist mode), TR; format: biochemical
# CYP2C9 = biological target: T5, CYP2C9 (Homo sapiens, UniProt P11712); assay: CYP450 screening, fluorescent signal, recombinant baculosomes, CYP2C9; format: in vitro ADME
# T5 construct: purchased Invitrogen
# VDR = VDR (Homo sapiens, UniProt P11473); assay: AlphaScreen nuclear receptor profile (agonist mode), VDR; format: biochemical
# PXR = PXR (Homo sapiens, UniProt O75469); assay: AlphaScreen nuclear receptor profile (agonist mode), PXR; format: biochemical
# PR = PR (Homo sapiens, UniProt P06401); assay: AlphaScreen nuclear receptor profile (agonist mode), PR; format: biochemical
# rTGR5 = rTGR5 (Rattus norvegicus, UniProt Q80T02); assay: TGR5 cross species activity, rTGR5; format: cell-based; details: Table 3, cross species
# dFXR = biological target: T6, dFXR (Canis lupus familiaris, UniProt A0A8I3N2S7); assay: FXR cross species activity, dFXR; format: biochemical, dog; details: Table 2, cross species
# T6 construct: printed for the human protein only; fused on or other part: GST tag, printed only for the human construct
# mFXR = mFXR (Mus musculus, UniProt Q60641); assay: FXR cross species activity, mFXR; format: biochemical; details: Table 2, cross species
# RAR = assay: AlphaScreen nuclear receptor profile (agonist mode), RAR; format: biochemical
# HepG2 cells [3] = assay: In vitro cytotoxicity, LDH release; format: cell-based; details: Homo sapiens
# HepG2 cells [4] = assay: In vitro cytotoxicity, cell viability by ATP content; format: cell-based; details: Homo sapiens, HepG2, read-out: ATP Content EC50
# CAR = CAR (Homo sapiens, UniProt Q14994); assay: AlphaScreen nuclear receptor profile (agonist mode), CAR; format: biochemical
# CYP1A2 = biological target: T7, CYP1A2 (Homo sapiens, UniProt P05177); assay: CYP450 screening, fluorescent signal, recombinant baculosomes, CYP1A2; format: in vitro ADME
# T7 construct: purchased Invitrogen
# CYP2E1 = biological target: T8, CYP2E1 (Homo sapiens, UniProt P05181); assay: CYP450 screening, fluorescent signal, recombinant baculosomes, CYP2E1; format: in vitro ADME
# T8 construct: purchased Invitrogen; host or cells: baculosomes (insect-cell microsomes)
# Text: To evaluate the potential of Compound 1 for drug-drug interactions, the six main CYP450 isoforms (CYP1A2, CYP2C9, CYP2C19, CYP2D6, CYP2E1, CYP3A4) are investigated (Obach, et al., J Pharmacol. Exp. Ther, 2006, 316, 336-348).
# rFXR = rFXR (Rattus norvegicus, UniProt Q62735); assay: FXR cross species activity, rFXR; format: biochemical; details: Table 2, cross species
# PPARδ = PPARδ (Homo sapiens, UniProt Q03181); assay: AlphaScreen nuclear receptor profile (agonist mode), PPARδ; format: biochemical
# Text: Using the AlphaScreen assay, the selectivity of Compound 1 against the following nuclear receptors involved in the metabolic pathways can be evaluated: LXRα, LXRβ, PXR, CAR, […], PPARδ, PPARγ, RAR, RARα, VDR, TR, PR, RXRα, GR, and ER.
# CYP2C19 = biological target: T9, CYP2C19 (Homo sapiens, UniProt P33261); assay: CYP450 screening, fluorescent signal, recombinant baculosomes, CYP2C19; format: in vitro ADME
# T9 construct: purchased Invitrogen; host or cells: baculosomes (insect-cell microsomes)
# Human FXR = biological target: T10, Human FXR (Homo sapiens, UniProt Q96RI1); assay: AlphaScreen assay, FXR-LBD-GST / SRC-1 LXXLL peptide recruitment; format: biochemical
# T10 construct: Human FXR-LBD-GST was incubated
# T10 sequence (Q96RI1 262-486 limits assumed): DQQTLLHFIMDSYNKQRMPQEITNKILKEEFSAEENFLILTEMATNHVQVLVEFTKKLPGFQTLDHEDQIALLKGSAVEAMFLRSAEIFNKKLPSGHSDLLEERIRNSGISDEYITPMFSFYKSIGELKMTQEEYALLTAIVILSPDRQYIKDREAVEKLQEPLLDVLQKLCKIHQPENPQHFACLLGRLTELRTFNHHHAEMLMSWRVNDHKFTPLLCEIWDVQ
smiles,measurement,setting,value
CC[C@H]1[C@@H](O)C2C3C[C@H](O)[C@H]([C@H](C)CCC(=O)O)[C@@]3(C)CCC2[C@@]2(C)CC[C@@H](O)C[C@@H]12 (some centres unmarked) [Compound E],solubility,Water solubility,120 mM
same,STCMC (Surface Tension at CMC),Surface tension at CMC,52.4
same,LogPA- (1-octanol-water partition coefficient),[1],1.6
same,CMC (Critical Micellar Concentration),[2],5.9 mM
"CC[C@H]1[C@@H](O)[C@@H]2[C@H](C[C@H](O)[C@]3(C)[C@@H]([C@H](C)C[C@H](C)C(=O)O)CC[C@@H]23)[C@@]2(C)CC[C@@H](O)C[C@@H]12 [Compound C, 6α-ethyl-23(S)-methyl-3α,7α,12α trihydroxy-5β-cholan-24-oic acid]",solubility,Water solubility,99 mM
same,STCMC (Surface Tension at CMC),Surface tension at CMC,50.1
same,LogPA- (1-octanol-water partition coefficient),[1],1.4
same,CMC (Critical Micellar Concentration),[2],2 mM
"CC[C@H]1[C@@H](O)C2C3CC[C@H]([C@H](C)CCC(=O)O)[C@@]3(C)C[C@H](O)C2[C@@]2(C)CC[C@@H](O)C[C@@H]12 (stereo partly drawn) [Compound F, 3α,7α,11β-dihydroxy-6α-ethyl-5β-cholan-24-oic acid]",solubility,Water solubility,143 to 150 mM
same,LogPA- (1-octanol-water partition coefficient),[1],0.8
"CCC1C(O)C2C3CCC(C(C)CCOS(=O)(=O)O)C3(C)CCC2C2(C)CCC(O)CC12 (stereo not drawn) [Compound B, 6α-ethyl-3α,7α,23-trihydroxy-24-nor-5β-cholan-23-sulfate sodium salt]",LogPA- (1-octanol-water partition coefficient),[1],2.0
"CC[C@H]1[C@@H](O)[C@@H]2[C@H](CC[C@]3(C)[C@@H]([C@H](C)CCC(=O)O)CC[C@@H]23)[C@@]2(C)CC[C@@H](O)C[C@@H]12 [Compound A, 6α-ethyl-3α,7α-dihydroxy-5β-cholan-24-oic acid]",solubility,Water solubility,9 mM
same,STCMC (Surface Tension at CMC),Surface tension at CMC,43.2-48.8
same,LogPA- (1-octanol-water partition coefficient),[1],2.5
same,CMC (Critical Micellar Concentration),[2],2.9 mM
"CC[C@H]1[C@@H](O)C2C3CC[C@H]([C@H](C)C[C@H](C)C(=O)O)[C@@]3(C)CCC2[C@@]2(C)CC[C@@H](O)C[C@@H]12 (stereo partly drawn) [Compound D, 6α-ethyl-23(R)-methyl chenodeoxycholic acid]",solubility,Water solubility,15 mM
same,LogPA- (1-octanol-water partition coefficient),[1],2.9
"CC[C@H]1[C@@H](O)[C@@H]2[C@H]([C@@H](O)C[C@]3(C)[C@@H]([C@H](C)CCC(=O)O)CC[C@@H]23)[C@@]2(C)CCCC[C@@H]12 [Compound 1, 7α,11β-dihydroxy-6α-ethyl-5β-cholan-24-oic acid]",EC50,PPARγ,> 300 µM
same,IC50,CYP2D6,> 10 µM
same,EC50,RXRα,> 300 µM
same,IC50,hERG potassium channel,> 100 µM
same,IC50,"CYP3A4; Blue Substrate, read-out: CYP3A4 (Blue Substrate) IC50",> 10 µM
same,IC50,"CYP3A4; Green Substrate, read-out: CYP3A4 (Green Substrate) IC50",> 10 µM
same,EC50,dTGR5,> 200 µM
same,"selectivity for FXR over TGR5, in words",Human TGR5,high selectivity for FXR over TGR5
same,EC50,"Human TGR5; Table 1, intracellular cAMP, NCI-H716 cells, quantity not named in head (EC50 per Table 3), read-out: HTR-FRET (cAMP) Human TGR5 (NCI-H716 cells)",> 200 µM
same,EC50,"Human TGR5; Table 3, cross species, read-out: hTGR5 EC50",> 200 µM
same,EC50,PPARα,> 300 µM
same,EC50,LXRα,> 300 µM
same,EC50,ER,> 300 µM
same,EC50,GR,> 300 µM
same,EC50,LXRβ,> 300 µM
same,EC50,Pgp,> 300 µM
same,EC50,mTGR5,> 200 µM
same,EC50,TR,> 300 µM
same,IC50,CYP2C9,> 10 µM
same,EC50,VDR,> 300 µM
same,EC50,PXR,> 300 µM
same,EC50,PR,> 300 µM
same,EC50,rTGR5,> 200 µM
same,LogPA- (1-octanol-water partition coefficient),[1],1.8
same,EC50,dFXR,1.65 ± 0.05 µM
same,EC50,mFXR,0.6 ± 0.02 µM
same,EC50,RAR,> 300 µM
same,EC50,HepG2 cells [3],> 300 µM
same,EC50,HepG2 cells [4],> 300 µM
same,EC50,CAR,> 300 µM
same,IC50,CYP1A2,> 10 µM
same,IC50,CYP2E1,> 10 µM
same,CMC (Critical Micellar Concentration),[2],2.0 mM
same,EC50,rFXR,0.49 ± 0.01 µM
same,EC50,PPARδ,> 300 µM
same,IC50,CYP2C19,> 10 µM
same,"FXR activation, in words",Human FXR,potent and selective activator
same,EC50,"Human FXR; Table 1, Human FXR-LBD-GST with biotinylated LXXLL SRC-1 peptide, quantity not named in head (EC50 per Table 2)",0.14 ± 0.04 µM
same,"FXR activation, in words",Human FXR; listed as compound of this invention,potent FXR agonists
